Experimental data as given in ChEMBL document CHEMBL1806496, “Nothospondin, a new AP-1 inhibitory quassinoid from the Cameroonian plant Nothospondias staudtii” (Bioorg Med Chem Lett, 2011).

Assays:
[1] = biological target: Transcription factor Jun (Homo sapiens, UniProt P05412); assay: Inhibition of TPA-induced AP-1 activity expressed in human HEK293T cells treated 1 hr before TPA challenge measured after 18 hrs by FRET based beta-lactamase reporter assay; assay type: cell-based, HEK-293T; settings: for inhibition: HEK-293T
[2] = test system: HEK-293T; assay: Cytotoxicity against human HEK293T cells expressing AP-1 at 80 uM after 18 hrs by XTT assay; assay type: cell-based
[3] = test system: HEK-293T; assay: Cytotoxicity against human HEK293T cells expressing AP-1 after 18 hrs by XTT assay; assay type: cell-based

Sequence of Transcription factor Jun (P05412 whole entry): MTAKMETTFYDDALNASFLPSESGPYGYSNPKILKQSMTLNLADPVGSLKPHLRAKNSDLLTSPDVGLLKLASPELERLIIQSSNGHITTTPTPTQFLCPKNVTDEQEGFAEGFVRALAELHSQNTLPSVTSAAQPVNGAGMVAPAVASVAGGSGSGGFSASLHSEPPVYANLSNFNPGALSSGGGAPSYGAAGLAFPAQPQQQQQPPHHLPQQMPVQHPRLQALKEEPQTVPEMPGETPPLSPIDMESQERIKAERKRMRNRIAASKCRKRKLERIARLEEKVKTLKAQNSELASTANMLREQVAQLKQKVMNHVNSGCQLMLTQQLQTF

CC[C@](C)(O)C(=O)O[C@H]1C(=O)O[C@@H]2C[C@H]3C(C)=CC(=O)[C@@H](O)[C@]3(C)[C@H]3[C@@]4(O)OC[C@]32[C@@H]1[C@@H](C)[C@H]4O [GLAUCARUBINONE]
EC50 [1]: 130 nM
inhibition [1]: Dose-dependent effect
Activity [2]: Non-toxic

COC1=C(C)[C@@H]2CC(=O)O[C@@H]3C[C@H]4[C@H](C)[C@@H](O)[C@H](O)C(=O)[C@]4(C)[C@@H](C1=O)[C@@]32C [NOTHOSPONDIN]
EC50 [1]: 1490 nM
inhibition [1]: Dose-dependent effect
IC50 [3]: 10000 nM
